Laboratory results: PubChem BioAssay (NCI)
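Interpolation was linear, between the two tested concentrations surrounding the appropriate level; five concentrations were tested over 48 hours in 96-well plates. GI50: concentration for 50% inhibition of growth. TGI marks complete inhibition of growth.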

Columns and labels:
RXF-631 renal = test: NCI-60 cell line screen, 48 h
HOP-18 NSCLC = test: NCI-60 cell line screen, 48 h

Row | Structure (SMILES) | TGI (RXF-631 renal) [µM] | TGI (HOP-18 NSCLC) [µM] | GI50 (HOP-18 NSCLC) [µM]
1 | O=c1[nH]c(=O)n(C2CC(O)C(CO)O2)cc1C#Cc1cc(C(F)(F)F)cc(C(F)(F)F)c1 (stereo unspecified) | > 100 | > 100 | –
2 | O=C1SC(c2ccccc2)(c2ccccc2)c2ccccc21 | – | > 100 | –
3 | CC(=O)[O-].[Ni].c1ccc(/C(=N\Nc2ccccn2)c2ccccn2)cc1 | – | > 100 | 2.81
4 | COc1ccc2c[n+](C)c3c4cc(OC)c(OC)cc4ccc3c2c1 | 46.9 | > 96.1 | –
5 | C=C(CN(C)C)C(=O)c1cc(C)ccc1C | – | 11.6 | –
6 | Cc1ccc([N+](=O)[O-])cc1NC(=O)C(=O)Cc1cc(=O)oc2cc(O)ccc12 | – | > 100 | –
7 | CC(C)[Si](OCC1CC(C[C@H]2CC(C[C@H]3C[C@@H](CO[Si](C(C)C)(C(C)C)C(C)C)OC(C)(C)O3)OC(C)(C)O2)OC(C)(C)O1)(C(C)C)C(C)C (stereo partly specified) | – | > 100 | –
8 | Cc1cc(NS(=O)(=O)c2ccc(NC(=O)c3cccc4cc5ccccc5nc34)cc2)no1 | 37.5 | – | –
